Key:
[1] = test system: Human whole blood, IL-1β production; test: Whole blood assay for IL-1β production; format: cell-based; settings: LPS-stimulated whole blood, IL-1β by ELISA
Method in brief: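 LPS-stimulated (5.0 ng/ml final) human whole blood incubated with test compound in saline (or plasma/PBS-5% DMSO for hydrophobic compounds) at 30° C for 16-18 hr. Plasma IL-1β then measured by ELISA at 1:200 dilution, against no-LPS, no-inhibitor and vehicle controls.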

[2] = Single pass perfusion in rat: GI wall and liver metabolism, biliary excretion; format: in vitro ADME; settings: for f (g) Xf (h): GI wall metabolism f(g) x liver metabolism f(h)
Procedure: Single pass perfusion studies in rat were performed to assess gastrointestinal (GI) wall metabolism (f(g)), liver metabolism (f(h)), and biliary excretion. The method used has been described in Pang, C. S., J. Pharmacol. Exp. Therapeutics, 333, pp. 788-798 (1984).

[3] = target: T1, Caspase-1 (Homo sapiens, UniProt P29466); test: Caspase-1 enzyme inhibition (Ki); format: biochemical; settings: substrate Suc-YVAD-pNA 80 μM, 37° C., pH 7.5
T1 sequence (P29466 120-297 limits assumed): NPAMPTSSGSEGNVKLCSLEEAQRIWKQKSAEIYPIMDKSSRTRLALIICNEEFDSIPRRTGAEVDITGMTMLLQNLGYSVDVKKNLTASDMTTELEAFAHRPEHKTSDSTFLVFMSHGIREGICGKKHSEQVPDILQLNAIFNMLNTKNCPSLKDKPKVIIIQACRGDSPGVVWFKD
T1 sequence (P29466 317-404 limits assumed): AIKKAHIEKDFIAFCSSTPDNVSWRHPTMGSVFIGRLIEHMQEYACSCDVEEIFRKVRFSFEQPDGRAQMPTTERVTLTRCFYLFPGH
Method in brief: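 Ki obtained by fitting rate versus inhibitor concentration to the Morrison tight-binding equation for competitive inhibitors, with pNA release read at 405 nm at 37 °C. Substrate Suc-YVAD-pNA (80 μM final) added after 15 min enzyme–inhibitor preincubation in Tris pH 7.5 buffer with DTT and CHAPS.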

[4] = test system: Human Peripheral Blood Mononuclear Cells (PBMC), mature IL-1β; test: PBMC cell assay: IL-1β assay with human peripheral blood mononuclear cells; format: cell-based; settings: LPS-stimulated human PBMC, mature IL-1β in supernatant by ELISA
Method in brief: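 Donor PBMC (suspension at 6×10^6 cells/ml) or adherent-enriched monocytes were stimulated with 5 ng/ml LPS (final) alongside 5–6 compound dilutions bracketing the ICE Ki, at 0.1% DMSO final, for 16–18 hr at 37° C, 5% CO2. Mature IL-1β in supernatants was measured by ELISA; IC50 was calculated relative to LPS-only controls.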

SMILES	IC50 [1] [nM]	Biliary Excretion [2]	f (g) Xf (h) [2]	Ki [3] [nM]	IC50 [4] [nM]
COc1cc(N)c(Cl)cc1C(=O)N[C@@H](C)C(=O)N1CCC[C@H]1C(=O)N[C@H](C=O)CC(=O)O [Example 7ac]	2500 to 7500	C (Category “C” indicates >10%)	C (Category “C” indicates 0.5-0.75)	10 to 1000	–
C[C@H](NC(=O)c1ccc(N)c(Cl)c1)C(=O)N1CCCC[C@H]1C(=O)N[C@H](C=O)CC(=O)O [Example 25d]	< 2500	C (Category “C” indicates >10%)	C (Category “C” indicates 0.5-0.75)	< 10	–
CC(=O)Nc1ccc(C(=O)N[C@@H](C)C(=O)N2CCCC[C@H]2C(=O)N[C@H](C=O)CC(=O)O)cc1Cl [Example 25e]	> 7500	B (Category “B” indicates 5-10%)	C (Category “C” indicates 0.5-0.75)	< 10	–
CC(=O)NC(C(=O)N1N=C(C(C)(C)C)SC1C(=O)NC(C=O)CC(=O)O)C(C)C (stereo not drawn) [Example 42, 3-{[3-(2-acetylamino-3-methyl-butyryl)-5-tert-butyl-2,3-dihydro-[1,3,4]thiadiazole-2-carbonyl]-amino)-4-oxo-butyric acid]	2500 to 7500	–	–	10 to 1000	> 2000
CC(C)(C)[C@H](NC(=O)c1ccc(N)c(Cl)c1)C(=O)N1CCCC1C(=O)N[C@H](C=O)CC(=O)O (stereo partly drawn) [Example 73, 3-({-[2-(4-Amino-3-chloro-benzoylamino)-3,3-dimethyl-butyryl]-pyrrolidine-2-carbonyl}-amino)-4-oxo-butyric acid]	< 2500	–	–	< 10	500 to 1000

Second part, led by results:

IC50 [1] [nM]	Biliary Excretion [2]	f (g) Xf (h) [2]	Ki [3] [nM]	SMILES	IC50 [4] [nM]
< 2500	–	–	< 10	CC(C)C(NC(=O)c1ccc(N)c(Cl)c1)C(=O)N1CCCC1C(=O)NC(C=O)CC(=O)O (stereo not drawn) [Example 61, 3-((1-[2-(4-Amino-3-chloro-benzoylamino)-3-methyl-butyryl]-pyrrolidine-2-carbonyl}-amino)-4-oxo-butyric acid]	500 to 1000
2500 to 7500	–	–	10 to 1000	C[C@H](NC(=O)c1ccccn1)C(=O)N1CCC[C@H]1C(=O)N[C@H](C=O)CC(=O)O [Example 122e]	1000 to 2000
< 2500	–	–	< 10	C[C@H](NC(=O)c1cc(Cl)c(N)c(Cl)c1)C(=O)N1CCC[C@H]1C(=O)N[C@H](C=O)CC(=O)O [Example 122g, 3-({1-[2-(4-Amino-3,5-dichloro-benzoylamino)-propionyl]-pyrrolidine-2-carbonyl}-amino)-4-oxo-butyric acid]	500 to 1000
< 2500	–	–	10 to 1000	CC(C)Oc1cccc(C(=O)N[C@@H](C)C(=O)N2CCC[C@H]2C(=O)N[C@H](C=O)CC(=O)O)c1 [Example 122h, 3-({1-[2-(3-Isopropoxy-benzoylamino)-propionyl]-pyrrolidine-2-carbonyl}-amino)-4-oxo-butyric acid]	1000 to 2000
< 2500	–	–	< 10	COc1ccc(C(=O)N[C@@H](C)C(=O)N2CCC[C@H]2C(=O)N[C@H](C=O)CC(=O)O)cc1OCc1ccccc1 [Example 122i, 3-({1-[2-(3-benzyloxy-4-methoxy-benzoylamino)-propionyl]-pyrrolidine-2-carbonyl}-amino)-4-oxo-butyric acid]	1000 to 2000
2500 to 7500	–	–	10 to 1000	C[C@H](NC(=O)c1cnc2ccccc2n1)C(=O)N1CCC[C@H]1C(=O)N[C@H](C=O)CC(=O)O [Example 122j, 4-Oxo-3-[(1-{2-[(quinoxaline-2-carbonyl)-amino]-propionyl}-pyrrolidine-2-carbonyl) -amino]-butyric acid]	> 2000
< 2500	–	–	10 to 1000	C[C@H](NC(=O)c1ccc(N)c(C(F)(F)F)c1)C(=O)N1CCC[C@H]1C(=O)N[C@H](C=O)CC(=O)O [Example 122l, 3-({1-[2-(4-Amino-3-trifluoromethyl-benzoylamino)-propionyl]-pyrrolidine-2-carbonyl}-amino)-4-oxo-butyric acid]	500 to 1000

From US20030232986A1, “Inhibitors of caspases” (Vertex Pharmaceuticals Incorporated, priority 1998, published 2003)
